The test system of series [1] is STZ-induced diabetic rats. Briefly: PD studies on insulin and glucagon delivery (plasma glucose). The class given is in vivo, Wistar rats. The note with it: hyperglycemic STZ-induced Type 1 diabetic rats (>400 mg dl^−1); 1-U insulin by SC injection or BCD; n = 4 per group.
Experimental: For this experiment, we employed a Type 1 diabetic animal model, streptozotocin (STZ)‐induced diabetic rats.[26], [28] To induce this animal model, Wistar rats were fasted overnight, and then intraperitoneally injected with a STZ solution (60 mg kg^−1) prepared in 0.09 M citrate buffered saline (pH 4.0) to destroy the beta‐cells of the pancreas. Three days after the STZ injection, the plasma glucose level was measured with a glucometer, and the animals with a plasma glucose level > 400 mg dl^−1 were screened for use. Among them, we employed two distinct animal models of hyperglycemia and hypoglycemia, respectively. For a hyperglycemic condition, the animals were used as they were with a blood glucose level of >400 mg dl^−1.[28], [29] For a hypoglycemic condition, the animals were fasted overnight and the ones with a plasma glucose level of <72 mg dl^−1 were screened for use.[30] The hyperglycemic animals were treated with 1‐U insulin by an SC injection or implanted BCD: Inj‐Insulin (n = 4) and BCD‐Insulin (n = 4), respectively. For this, we utilized a commercially available insulin solution (100 U ml^−1; NovoRapid, Novo Nordisk). […] After administration, the plasma glucose level was measured with a glucometer at scheduled times.
Series [2] can be described thus: Stability assessment of exenatide and insulin in the BCD. The source says:
Supplementary Figure 5. […] To obtain the CD spectra, the solution was placed in a 1-mm path length cuvette (Chirascan plus, Applied Photophysics, Surrey, UK) and scanned over range of 200-260 nm.

For the substance “insulin: commercially available insulin solution (100 U ml^−1; NovoRapid, Novo Nordisk)”, the “Change in plasma glucose level after insulin” value in series [1] is given as “decrease”. The “Stability during 4-week period in the BCD” value in series [2] (4 weeks, Figure S5) was “well retained”. Moreover, in series [2] (insulin stored in BCD at 37 °C for 28 days, injected subcutaneously to diabetic animals, n = 3), the “Drop of blood glucose level with stored versus fresh insulin” value was “similar”. For the same substance, in series [2] (loaded BCDs stored at 37 °C for 28 days, versus fresh drug solution, n = 3, HPLC and CD 200-260 nm), the “Drug content (HPLC) and far-UV CD spectra after incubation in the BCD” value is given as “did not vary”.
